Where a chain is given by its changes, count along the chain named. Like-named read-outs stand apart in the source and are kept apart here. Some results are limits rather than exact numbers.

Holding throughout (format): cell-based
One assay deals with T1, rat M1 Y106A receptor (Rattus norvegicus, UniProt P08482, Y106A).
T1 construct: expressed in transfected cells
T1 sequence (P08482 1-460 Y106A): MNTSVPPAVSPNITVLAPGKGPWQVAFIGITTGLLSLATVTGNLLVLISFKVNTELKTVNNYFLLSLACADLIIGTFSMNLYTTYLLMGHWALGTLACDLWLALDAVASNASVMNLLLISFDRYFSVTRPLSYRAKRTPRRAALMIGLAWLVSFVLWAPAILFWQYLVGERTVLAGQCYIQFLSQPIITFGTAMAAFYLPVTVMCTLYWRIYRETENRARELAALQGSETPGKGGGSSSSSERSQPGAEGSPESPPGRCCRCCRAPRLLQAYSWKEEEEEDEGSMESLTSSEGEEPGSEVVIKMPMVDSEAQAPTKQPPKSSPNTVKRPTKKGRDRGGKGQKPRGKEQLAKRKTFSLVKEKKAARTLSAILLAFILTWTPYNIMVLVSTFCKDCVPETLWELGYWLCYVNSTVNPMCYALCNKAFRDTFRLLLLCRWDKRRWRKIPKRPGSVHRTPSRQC
As to the kind of experiment: R-SAT functional assay, Y106A mutant. Conditions: for Shift / EC50 / Eff (%): Table 3; for Shift: EC50 Y106A divided by EC50 wild-type; for Eff (%): maximum response, normalized. Here is the method: (§1) Cells are co-transfected for 18 h with DMEM containing 0.08 micrograms/ml of an expression vector for the expression of the mutant receptor and 0.3 micrograms/ml pSI-Bgal (Promega, Madison Wis.), and 0.5% v/v Polyfect (Qiagen, Valencia Calif.), as recommended by the manufacturer. On day three, the medium is replaced with DMEM containing 1% PSG, 0.5% calf serum, 2% cyto-sf3 (Kemp Biotechnologies, Frederick, Md.), and varying concentrations of the compounds to be tested. Cells are grown in a humidified atmosphere with 5% ambient CO2 for 5 days. The media is removed from the plates, and beta-galactosidase activity is measured by the addition of o-nitrophenyl -d-galactopyranoside in phosphate-buffered saline with 5% Nonidet P-40. […] The following equation is fitted to the data using GraphPad Prism software (San Diego, Calif.):
(§2) NIH-3T3 cells were grown in 96-well tissue culture plates to 70 to 80% confluence in Dulbecco's modified essential media (DMEM) supplemented with 100 units/ml penicillin, 100 micrograms/ml streptomycin, 0.3 mg/ml L-glutamine (1% PSG, GIBCO) and 10% calf serum (Sigma-Aldrich). Cells were transfected for 18 h with DMEM containing 0.08 micrograms/ml receptor DNA and 0.3 micrograms/ml pSI-Bgal (Promega, Madison Wis.), 0.5% v/v Polyfect (Qiagen, Valencia Calif.). Medium was replaced with DMEM containing 1% PSG, 0.5% calf serum, 2% cyto-sf3 (Kemp Biotechnologies, Frederick, Md.), and varying concentrations of ligand. […] Cells were grown in a humidified atmosphere with 5% ambient CO2 for 5 days. Medium was removed from the plates, and beta-galactosidase activity was measured by the addition of o-nitrophenyl -d-galactopyranoside in phosphate-buffered saline with 5% Nonidet P-40.

In the next assay the target is T2, rat M1 L102A receptor (Rattus norvegicus, UniProt P08482, L102A).
T2 construct: expressed in transfected cells; host or cells: NIH-3T3
T2 sequence (P08482 1-460 L102A): T1 sequence (P08482 1-460 Y106A) with L102A, A106Y
As to the kind of experiment: R-SAT functional assay, L102A mutant. Conditions: for Eff (%) / Shift / EC50: Table 3; for Eff (%): maximum response, normalized; for Shift: EC50 L102A divided by EC50 wild-type. Here is the method: as §1, §2

The target of the next assay is T3, rat M1 Y381A receptor (Rattus norvegicus, UniProt P08482, Y381A).
T3 construct: expressed in transfected cells; host or cells: NIH-3T3
T3 sequence (P08482 1-460 Y381A): T1 sequence (P08482 1-460 Y106A) with A106Y, Y381A
In words: R-SAT functional assay, Y381A mutant. Conditions: M1 Y381A; for EC50: read-out: pEC50 (converted). As for the experimental part: as §1, §2
Receptor Selection and Amplification (R-SAT™) Assays: R-SAT™ functional assays were carried out as follows. NIH-3T3 cells were grown in 96-well tissue culture plates to 70 to 80% confluence in Dulbecco's modified essential media (DMEM) supplemented with 100 units/ml penicillin, 100 micrograms/ml streptomycin, 0.3 mg/ml L-glutamine (1% PSG, GIBCO) and 10% calf serum (Sigma-Aldrich). Cells were transfected for 18 h with DMEM containing 0.08 micrograms/ml receptor DNA and 0.3 micrograms/ml pSI-Bgal (Promega, Madison Wis.), 0.5% v/v Polyfect (Qiagen, Valencia Calif.). The transfected cells were frozen away. Cells were thawed and added to 96 well plates with DMEM containing 1% PSG, 0.5% calf serum, 2% cyto-sf3 (Kemp Biotechnologies, Frederick, Md.), and varying concentrations of ligand.
In an effort to further characterize monoamine modulators, we used a panel of mutant muscarininc M1 receptors to analyze the activity and potency of orthosteric modulators and various allosteric modulators at those receptors.

Where [1] appears, read: Table 4, maximum response relative to xanomeline.
Setting [2] is: Table 10, maximum response relative to AC-42.

`CCCCC1CCN(CCCC(=O)c2ccccc2C)CC1` [AC-42, 4-n-butyl-1-[4-(2-methylphenyl)-4-oxo-1-butyl] piperidine hydrogen chloride]: at rat M1 Y106A receptor, the Shift was >8. For the same molecule, the EC50 was > 1000 nM on rat M1 Y106A receptor (Y106A); 316 nM on rat M1 Y381A receptor (Table 4); 3160 nM on rat M1 Y381A receptor (Table 10, NA = non-active). The “Eff (%)” value on rat M1 Y106A receptor (Y106A) is on record as >30 ± — %; at rat M1 L102A receptor (L102A), 6 ± 0%. Moreover, the figures for the “% Eff” value on rat M1 Y381A receptor (setting [1]) and on rat M1 Y381A receptor (setting [2]) were 46% and 102%, respectively.
For the molecule `CCCCC1CCN(CCCN2C(=O)COc3cc(F)ccc32)CC1` [AC-260584, 4-[3-(4-Butyl-piperidin-1-yl)-propyl]-7-fluoro-4H-benzo [1,4]oxazin-3-one], the results for the Shift on rat M1 Y106A receptor and on rat M1 L102A receptor were 6 and 30, respectively. Moreover, the EC50 on rat M1 Y106A receptor (Y106A) is 79.4 nM; at rat M1 L102A receptor (L102A), 501 nM; at rat M1 Y381A receptor (Table 4), 79.4 nM; at rat M1 Y381A receptor (Table 10, NA = non-active), 63.1 nM. Also, the “Eff (%)” value at rat M1 Y106A receptor (Y106A) was 69 ± 3%; on rat M1 L102A receptor (L102A), 37 ± 7%. Besides, at rat M1 L102A receptor (R-SAT, L102A), the “decrease in potency relative to wild-type” value came out at 30 fold. For the same molecule, the results for the “% Eff” value at rat M1 Y381A receptor (setting [1]) and at rat M1 Y381A receptor (setting [2]) were 60% and 168%, respectively.
On to `Clc1ccc2c(c1)N=C(N1CCNCC1)c1ccccc1N2` [NDMC, 8-chloro-11-(1-piperazinyl)-5H-dibenzo [b,e] [1,4] diazepine], for which the Emax at rat M1 Y106A receptor (R-SAT, Y106A, read-out: increase of maximum response over response at wild-type) stood at 40%. In addition, the values for the Shift on rat M1 Y106A receptor and at rat M1 L102A receptor were 2 and >100, respectively. The EC50 was 100 nM on rat M1 Y106A receptor (Y106A); > 10000 nM at rat M1 L102A receptor (L102A); 158 nM on rat M1 Y381A receptor (Table 4); 158 nM on rat M1 Y381A receptor (Table 10, NA = non-active). Also, the “Eff (%)” value is recorded as 112 ± 15% on rat M1 Y106A receptor (Y106A) and >35 ± — % at rat M1 L102A receptor (L102A). Besides, the “% Eff” value on rat M1 Y381A receptor (setting [1]) worked out at 95%; on rat M1 Y381A receptor (setting [2]), 330%.

For the origin of these results see US20090209525A1, “ENABLING METHODS TO IDENTIFY ALLOSTERIC MODULATORS OF RECEPTOR ACTIVITY” (priority 2006, published 2009).
